What was measured:
human SGLT2 = target: T1, human SGLT2 (Homo sapiens, UniProt P31639); test: Inhibition of methyl-α-D-glucopyranoside uptake in COS-7 cells expressing human SGLT2; assay type: cell-based; conditions: 14C α-MG uptake, 1 mM α-MG, transfected COS-7 cells, 1 hour at 37° C.; read-out: hSGLT2 IC50
T1 construct: expressed in transfected cells; host or cells: COS-7 cells, transient lipofection of pcDNA3.1(-) vector
T1 sequence (P31639 1-672): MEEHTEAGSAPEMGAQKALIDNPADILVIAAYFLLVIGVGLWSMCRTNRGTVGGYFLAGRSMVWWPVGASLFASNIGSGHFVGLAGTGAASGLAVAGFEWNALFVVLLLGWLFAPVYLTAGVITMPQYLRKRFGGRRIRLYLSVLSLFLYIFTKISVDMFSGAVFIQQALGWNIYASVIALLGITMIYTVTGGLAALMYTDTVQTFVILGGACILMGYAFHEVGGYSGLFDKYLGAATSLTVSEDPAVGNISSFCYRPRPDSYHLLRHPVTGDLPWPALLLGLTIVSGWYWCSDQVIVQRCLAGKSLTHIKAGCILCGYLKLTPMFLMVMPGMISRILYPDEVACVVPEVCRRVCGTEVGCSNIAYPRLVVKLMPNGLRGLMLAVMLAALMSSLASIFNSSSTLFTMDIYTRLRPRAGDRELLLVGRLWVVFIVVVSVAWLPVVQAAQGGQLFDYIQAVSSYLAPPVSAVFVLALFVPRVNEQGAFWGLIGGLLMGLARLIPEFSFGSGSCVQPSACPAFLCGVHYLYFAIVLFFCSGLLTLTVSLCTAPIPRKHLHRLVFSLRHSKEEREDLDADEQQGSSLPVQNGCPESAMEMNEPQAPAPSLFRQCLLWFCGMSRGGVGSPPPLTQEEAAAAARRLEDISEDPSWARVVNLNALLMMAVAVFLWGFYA
Protocol: (§1) Assay for Inhibitory Effects on Human SGLT Activity
2) Cloning and Construction of the Vector Expressing Human SGLT2
(§2) The cDNA library was prepared for PCR amplification by reverse transcription from total RNA derived from human kidney (Ori gene) using oligo-dT as a primer. Using this cDNA library as a template, the DNA fragment coding 2 to 2039 bp of human SGLT2 (ACCESSION: M95549, M95299), which was reported by R. G. Wells et al., was amplified by PCR method and inserted into the multi-cloning site of pcDNA3.1(−) (Invitrogen). The DNA sequence inserted was perfectly matched to the previously reported sequence.
(§3) 3) Preparation of the Cells Expressing Human SGLT1 or SGLT2 […]
(§4) A mixture of non-labeled (Sigma) and ^14C-labeled α-MG (Amersham Pharmacia Biotech) was added to the uptake buffer (pH 7.4; containing 140 mM sodium chloride, 2 mM potassium chloride, 1 mM calcium chloride, 1 mM magnesium chloride, 10 mM 2-[4-(2-hydroxyethyl)-1-piperazinyl]ethane sulfonic acid and 5 mM tris(hydroxymethyl)aminomethane) at the final concentration of 1 mM. […] Radioactivity was measured by means of micro-scintillation counter TopCount (Packard). One hundred % was set to the difference between the uptake in the control group and the basal uptake, and the uptake of methyl α-D-glucopyranoside at each drug concentration was calculated. […]

human SGLT1 = target: T2, human SGLT1 (Homo sapiens, UniProt P13866); test: Inhibition of methyl-α-D-glucopyranoside uptake in COS-7 cells expressing human SGLT1; assay type: cell-based; conditions: 14C α-MG uptake, 1 mM α-MG, transfected COS-7 cells, 1 hour at 37° C.; read-out: hSGLT1 IC50
T2 construct: expressed in transfected cells; host or cells: COS-7 cells, transient lipofection of pcDNA3.1(-) vector
T2 sequence (P13866 1-664): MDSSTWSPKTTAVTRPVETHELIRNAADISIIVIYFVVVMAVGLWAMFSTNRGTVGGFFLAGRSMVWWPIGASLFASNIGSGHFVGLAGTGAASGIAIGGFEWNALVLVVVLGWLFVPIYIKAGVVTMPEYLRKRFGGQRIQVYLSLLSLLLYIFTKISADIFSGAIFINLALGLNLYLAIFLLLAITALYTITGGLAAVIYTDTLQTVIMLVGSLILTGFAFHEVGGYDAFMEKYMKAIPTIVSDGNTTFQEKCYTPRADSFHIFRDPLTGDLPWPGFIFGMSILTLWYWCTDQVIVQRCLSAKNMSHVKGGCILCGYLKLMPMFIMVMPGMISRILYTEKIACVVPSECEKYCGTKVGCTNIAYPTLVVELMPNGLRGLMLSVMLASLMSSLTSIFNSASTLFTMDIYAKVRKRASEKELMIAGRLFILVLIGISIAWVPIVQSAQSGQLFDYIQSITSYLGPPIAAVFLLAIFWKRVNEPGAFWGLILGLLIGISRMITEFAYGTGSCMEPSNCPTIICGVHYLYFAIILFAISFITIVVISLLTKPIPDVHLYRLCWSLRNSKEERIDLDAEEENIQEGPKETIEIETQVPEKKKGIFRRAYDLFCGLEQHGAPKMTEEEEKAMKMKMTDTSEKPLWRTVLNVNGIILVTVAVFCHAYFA
Protocol: as §1
1) Cloning and Construction of the Vector Expressing Human SGLT1
as §2, with “small intestine” for “kidney”, “1” for “2”, “2005” for “2039”, “SGLT1” for “SGLT2”, “M24847),” for “M95549, M95299),”, “Hediger” for “R. G. Wells”
as §3, §4

Row | SMILES | IC50 (human SGLT2) [nM] | IC50 (human SGLT1) [nM]
1 | COc1ccc(Cn2cc([C@@H]3O[C@H](CO)[C@@H](O)[C@H](O)[C@H]3O)c3cc(C)ccc32)cc1 [Example 8] | 6 | 
2 | COc1ccc(Cn2cc([C@@H]3O[C@H](CO)[C@@H](O)[C@H](O)[C@H]3O)c3cccc(C)c32)cc1 [Example 6] |  | 83

— patent publication US7750145B2, “1-substituted-3-β-D-glucopyranosylated nitrogenous hetero-cyclic compounds and medicines containing the same” (Kissei Pharmaceutical Co., Ltd., priority 2004, dated 2010)
